From ChEMBL document CHEMBL1201862, “PubChem BioAssay data set” (2004)
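Results reflect a 48-hour exposure of cells in 96-well plates to compound at five concentrations. At the GI50, growth is halved.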 Calls of active or inactive are those of the source. Rule as the data show it: active = GI50 up to about 1.1 µM and inactive = higher.

Assays:
Test in all cases: growth of human tumour cells (NCI), 48 h
CCRF-CEM = tested on: CCRF-CEM
NCI-H522 = tested on: NCI-H522
RXF 393 = tested on: RXF 393
UACC-257 = tested on: UACC-257
M14 = tested on: M14
HOP-62 = tested on: HOP-62
SW-620 = tested on: SW-620
NCI-H226 = tested on: NCI-H226
SK-MEL-2 = tested on: SK-MEL-2
IGROV-1 = tested on: IGROV-1
786-0 = tested on: 786-0
OVCAR-5 = tested on: OVCAR-5
TK-10 = tested on: TK-10
RPMI-8226 = tested on: RPMI-8226

SMILES | GI50 (CCRF-CEM) | GI50 (NCI-H522) | GI50 (RXF 393) | GI50 (UACC-257) | GI50 (M14) | GI50 (HOP-62) | GI50 (SW-620) | GI50 (NCI-H226) | GI50 (SK-MEL-2) | GI50 (IGROV-1) | GI50 (786-0) | GI50 (OVCAR-5) | GI50 (TK-10) | GI50 (RPMI-8226)
CN(C)CCNC(=O)c1cccc2ccc(-c3ccc(-c4ccccc4)cc3)nc12 | 2.72 µM (inactive) | 1.88 µM (inactive) | 2.22 µM (inactive) | 1.86 µM (inactive) | 1.77 µM (inactive) | 3.3 µM (inactive) | 2.11 µM (inactive) | 13.1 µM (inactive) | 18.3 µM (inactive) | 12.6 µM (inactive) | 1.79 µM (inactive) | 3.92 µM (inactive) | 4.48 µM (inactive) | –
O=C1C=CC=CC2CC=C[C@@H](O)C12 (stereo partly specified) | 15.3 µM (inactive) | 13.7 µM (inactive) | – | 14 µM (inactive) | 18.7 µM (inactive) | 45.7 µM (inactive) | 10.5 µM (inactive) | – | 22.1 µM (inactive) | 39.6 µM (inactive) | 17.2 µM (inactive) | 30.5 µM (inactive) | 32.4 µM (inactive) | 3.41 µM (inactive)
O=C1CCN2C(=O)CCN12 | > 100 µM (inactive) | > 100 µM (inactive) | – | > 100 µM (inactive) | > 100 µM (inactive) | > 100 µM (inactive) | > 100 µM (inactive) | > 100 µM (inactive) | > 100 µM (inactive) | – | > 100 µM (inactive) | > 100 µM (inactive) | > 100 µM (inactive) | > 100 µM (inactive)
CCN(CC)c1ccc(/N=C2/C=CC(=O)c3ncccc32)c(C)c1 | 2.09 µM (inactive) | – | 3.48 µM (inactive) | 4.38 µM (inactive) | 3.02 µM (inactive) | 20.2 µM (inactive) | 2.53 µM (inactive) | 18.5 µM (inactive) | 15.1 µM (inactive) | 6.65 µM (inactive) | 5.02 µM (inactive) | 12 µM (inactive) | 16.3 µM (inactive) | 2.93 µM (inactive)
C/C(CCN(C)C)=N/O | 0.194 µM (active) | – | 6.05 µM (inactive) | 15.7 µM (inactive) | 0.859 µM (active) | 1.77 µM (inactive) | 2.71 µM (inactive) | 30 µM (inactive) | 16.5 µM (inactive) | 18.9 µM (inactive) | 2.81 µM (inactive) | 18.7 µM (inactive) | 7.73 µM (inactive) | 0.313 µM (active)
COC(=O)NC(=O)c1cn(CCCOC(=O)CCCCCCCCC(=O)OCCCn2cc(C(=O)NC(=O)OC)c(=O)[nH]c2=O)c(=O)[nH]c1=O | > 100 µM (inactive) | – | 29.4 µM (inactive) | > 100 µM (inactive) | > 100 µM (inactive) | 23.1 µM (inactive) | > 100 µM (inactive) | > 100 µM (inactive) | > 100 µM (inactive) | 85.1 µM (inactive) | 88.5 µM (inactive) | > 100 µM (inactive) | 36.8 µM (inactive) | > 100 µM (inactive)
O=C(Nc1c(O)[nH]c(=S)[nH]c1=O)c1ccccc1 | > 100 µM (inactive) | > 100 µM (inactive) | – | > 100 µM (inactive) | > 100 µM (inactive) | > 100 µM (inactive) | > 100 µM (inactive) | > 100 µM (inactive) | > 100 µM (inactive) | > 100 µM (inactive) | > 100 µM (inactive) | > 100 µM (inactive) | > 100 µM (inactive) | > 100 µM (inactive)
CN(C(=O)C12C3C4C1C1C2C3C41C(O)C(C)(C)C)C(C)(C)C (stereo unspecified) | > 100 µM (inactive) | 58.2 µM (inactive) | – | > 100 µM (inactive) | > 100 µM (inactive) | > 100 µM (inactive) | > 100 µM (inactive) | > 100 µM (inactive) | > 100 µM (inactive) | > 100 µM (inactive) | > 100 µM (inactive) | > 100 µM (inactive) | > 100 µM (inactive) | > 100 µM (inactive)
CC(=O)NNc1nc(C)c(C(=O)/C=C/c2ccc(Cl)cc2)s1 | > 100 µM (inactive) | > 100 µM (inactive) | > 100 µM (inactive) | > 100 µM (inactive) | – | > 100 µM (inactive) | > 100 µM (inactive) | – | > 100 µM (inactive) | > 100 µM (inactive) | > 100 µM (inactive) | > 100 µM (inactive) | > 100 µM (inactive) | > 100 µM (inactive)
O=c1c2cc(Br)cc(Br)c2[nH]c(=S)n1-c1ccccc1 | 42.2 µM (inactive) | – | – | > 100 µM (inactive) | > 100 µM (inactive) | 88.5 µM (inactive) | 71.4 µM (inactive) | 30.2 µM (inactive) | > 100 µM (inactive) | > 100 µM (inactive) | 99.1 µM (inactive) | > 100 µM (inactive) | 78.3 µM (inactive) | 28.9 µM (inactive)
